Assay results from ChEMBL document CHEMBL3639107, “Dioxa-bicyclo[3.2.1]octane-2,3,4-triol derivatives” (2014).
Values joined by “and” are separate entries in the source; they are usually repeats but may differ in a detail not shown here. Equal entries are not always repeated.

Biological target: T1, Sodium/glucose cotransporter 2 (Homo sapiens, UniProt P31639)
T1 sequence (P31639 whole entry): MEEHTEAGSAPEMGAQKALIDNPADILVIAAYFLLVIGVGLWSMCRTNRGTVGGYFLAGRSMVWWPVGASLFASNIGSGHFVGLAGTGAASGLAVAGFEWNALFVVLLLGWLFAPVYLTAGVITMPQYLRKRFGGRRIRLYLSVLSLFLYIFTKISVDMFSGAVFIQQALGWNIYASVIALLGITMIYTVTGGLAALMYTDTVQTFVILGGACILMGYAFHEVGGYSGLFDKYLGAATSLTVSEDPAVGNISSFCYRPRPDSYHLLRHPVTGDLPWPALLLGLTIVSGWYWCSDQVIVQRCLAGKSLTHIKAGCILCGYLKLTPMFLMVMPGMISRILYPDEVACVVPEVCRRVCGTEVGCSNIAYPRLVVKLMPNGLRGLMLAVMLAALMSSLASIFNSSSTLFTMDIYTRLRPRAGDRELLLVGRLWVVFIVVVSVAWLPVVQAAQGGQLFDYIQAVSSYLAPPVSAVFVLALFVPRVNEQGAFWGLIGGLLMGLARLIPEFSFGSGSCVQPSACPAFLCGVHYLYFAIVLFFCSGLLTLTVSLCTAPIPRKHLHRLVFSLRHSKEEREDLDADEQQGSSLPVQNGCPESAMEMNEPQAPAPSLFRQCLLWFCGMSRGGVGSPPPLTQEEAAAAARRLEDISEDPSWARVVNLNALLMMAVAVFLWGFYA
Experiment: Biological Assays: The SGLT2 functional assay was designed to detect the inhibition of methyl-alpha-D glucopyranoside (AMG a non-metabolizable form of glucose) uptake via the SGLT2 transporter. The SGLT2 transporter recovers glucose from the proximal tubules of the kidney; its inhibition results in sugar wasted in the urine. The positive control compound, Phlorizin, is a known inhibitor of glucose uptake for SGLT2 and was used for comparing the high percent effect of SGLT2 inhibition of the test compounds.

IC50: 5 nM and 6.7 nM
SMILES: CCOc1ccc(Cc2cc([C@]34OC[C@](COC(C)=O)(O3)[C@@H](O)[C@H](O)[C@H]4O)ccc2Cl)cc1
